# Measurements reported in patent US5508293A, “Pyridinecarboxyimidamide compounds and the use thereof” (Kirin Beer Kabushiki Kaisha, priority 1992, dated 1996).
# Tests used:
# [1] = system: spontaneously hypertensive rats (SHR), mean blood pressure; test: Antihypertensive activities on spontaneously hypertensive rat (intravenously); type: in vivo, rat (male spontaneously hypertensive rats; conditions: iv, anesthetized male SHR, i.v., cumulative dosing, read-out: ED20 (the dose which lowered the blood pressure by 20%)
# Protocol: Animals were anesthetized with urethane: α-chloralose.
# A cannula was inserted into the carotid artery for measuring the mean blood pressure via a pressure transducer. A test compound was cumulatively administered through the cannula inserted into the femoral vein with an interval of 30 minutes. Variation of blood pressure was determined as the percentage change in the blood pressure before administration of the test compound, and the ED20 (the dose which lowered the blood pressure by 20%) was calculated from a dose-response curve.
# [2] = system: spontaneously hypertensive rats (SHR), systolic blood pressure; test: Time course of antihypertensive activity in conscious SHR (oral), Compound No. 16; type: in vivo, rat (male spontaneously hypertensive rats; conditions: 3.0 mg/kg oral
# Protocol: Time course of antihypertensive activity of 5-amino-N-cyano-N'-(2-phenethyl)pyridinecarboximidamide (Compound No. 16) was examined.
# (§1) Systolic blood pressure (SBP) was measured with the tail cuff method.
# The compound No. 16 was dissolved in an equivalent mixture of polyethylene glycol 200 and physiological saline, and administered orally with the aid of an oral probe. SBP was measured before administration and 1, 2, 4, 6, 8, 12 and 24 hours after administration of the compound. The results were expressed as the percentage change in SBP obtained before administration.
# rat aorta = test: Vasodilating effect in a rat aorta (relaxation of KCl-induced contraction); parameters: species or system rat (male Wistar rat); conditions: isolated rat thoracic aorta, 40 mM KCl; read-out: IC50 (concentration for inhibiting 50% of the tension induced by KCl)
# Protocol: Physiological effect of the compound of the present invention was tested by the method with use of an isolated rat aorta.
# Thoracic aorta was isolated from a male Wistar rat (body weight, 250-350 g) exsanguinated to death for obtaining ring preparations having a width of 3 mm. The preparations were suspended into an organ bath filled with the Krebs-Ringer solution through which a mixed gas of 95% O2 and 5% CO2 had been aerated at 37° C. A resting tension of 1 g was applied to the preparation. After the tension in the preparation was stabilized, the solution in the organ bath was exchanged with an equimolar solution containing 40 mM KC1 to increase the tension of the preparation. When the tension induced by KCl become stable, the test compound was cumulatively added to the organ bath to relax the preparation. Relaxation response was expressed as percentage inhibition of KCl-induced contraction, and the IC50 value (concentration for inhibiting 50% of the tension induced by KCl) was calculated from the average concentration-response curve by the Probit method.
# [3] = system: spontaneously hypertensive rats (SHR), systolic blood pressure; test: Antihypertensive effects on conscious SHR (oral), Compound Nos. 18 and 19; type: in vivo, rat (male spontaneously hypertensive rats; conditions: 3.0 mg/kg oral
# Protocol: Antihypertensive effects of- 5-amino-N-cyano-N'-(2-nitroxyethyl)-3-pyridinecarboximidamide (N-cyano-N'-(2-nitroxyethyl)-5-(3-aminopyridine)carboximidamide; Compound No. 18) and N-cyano-5-ethylamino-N'-(2-nitroxyethyl)-3-pyridinecarboximidamide (N-cyano-N'-(2-nitroxyethyl)-5-[3-(N-ethylaminopyridine)]carboximidamide; Compound No. 19) were assessed by comparison with those of the methanesulfonate salt of N-cyano-N'-(2-nitroxyethyl)-3-pyridinecarboximidamide (compound described in Japanese Patent Laid-Open Publication No. 163061/1991) as a reference compound which is thought to be a well-known compound most similar to the compound of the present invention.
# as §1
# Each of the compound Nos. 18 and 19 was dissolved in an equivalent mixture of polyethylene glycol 200 and physiological saline, and the reference compound was dissolved in physiological saline. The compounds were administered orally with the aid of an oral probe. SBP was measured before administration and 1, 2, 4, 6, 8, 12 and 24 hours after administration of the compound. The results were expressed as the percentage change in SBP observed before administration.
# beagles, blood pressure = test: Antihypertensive activity on anesthetized beagles (intravenously); type: in vivo, dog (beagles); conditions: for Antihypertensive activity (%): i.v.
# Protocol: Antihypertensive activities of 5-amino-N-cyano-N'-[2-(2-chlorophenyl)ethyl]-3-pyridinecarboximidamide (N-cyano-N'-[2-(2-chlorophenyl)ethyl]-5-(3aminopyridine)carboximidamide; Compound No. 6) according to the present invention was assessed by comparison with those of N-cyano-N'-[2-(2-chlorophenyl)ethyl]-3-pyridinecarboximidamide which is thought to be a wellknown compound most similar to the compound of the present invention (see Japanese Patent Laid-Open Publication No. 163061/1991).
# Experiments were carried out with beagles (body weight, 9.2-10.4 kg) under anesthetization by intravenous administering 30 mg/kg of pentobarbital sodium. A cannula was inserted into the right femoral artery for measuring blood pressure. […]
# [4] = system: coronary blood flow (circumflex branch of the left coronary artery), beagles; test: Coronary dilating effect on beagles (coronary blood flow, anesthetized dog); type: in vivo; conditions: i.v., 10 Mg/Kg
# Protocol: Coronary dilating effects of 5-amino-N-cyano-N'-(2-nitroxyethyl)-3-pyridinecarboximidamide (Compound No. 18) of the present invention was assessed by comparison with those of N-cyano-N'-(2-nitroxyethyl)-3-pyridinecarboximidamide methanesulfonic acid (compound described in Japanese Patent Laid-Open Publication No. 163061/1991) which is thought to be a well-known compound most similar to the compound of the present invention.
# A dog (body weight, 8.3 kg) was anesthetized with 30 mg/kg of pentobarbital sodium intravenously. Respiration was maintained with room air through a cuffed endotracheal tube. The drug was administered through the femoral vein, and the coronary blood flow was measured by a probe attached to the circumflex branch of the left coronary artery.
smiles,measurement,setting,value
"CCNc1cncc(C(=NCCc2ccccc2Cl)NC#N)c1 [compound 10, N-cyano-N'-[2-(2-chlorophenyl)ethyl]-5-ethylamino-3-pyridinecarboximidamide]",ED20,[1],0.0079 mg/kg
"N#CN=C(NCCc1ccccc1)c1cncc(N)c1 [Compound No. 16, 5-amino-N-cyano-N'-(2-phenethyl)-3-pyridine-carboximidamide]",ED20,[1],0.028 mg/kg
same,decrease in blood pressure,[2],decrease in blood pressure was observed
same,duration of the antihypertensive effect,[2],≥ 12 h
same,percentage change in SBP obtained before administration,[2]; 1 hour after administration,-45.3%
same,percentage change in SBP obtained before administration,[2]; 2 hour after administration,-23.9%
same,percentage change in SBP obtained before administration,[2]; 4 hour after administration,-42.3%
same,percentage change in SBP obtained before administration,[2]; 6 hour after administration,-27.9%
same,percentage change in SBP obtained before administration,[2]; 8 hour after administration,-22.8%
same,percentage change in SBP obtained before administration,[2]; 12 hour after administration,-15.1%
same,percentage change in SBP obtained before administration,[2]; 24 hour after administration,-8.2%
"N#CNC(=NCCc1ccccc1Cl)c1ccc(N)nc1 [compound 5, 6-amino-N-cyano-N'-[2-(2-chlorophenyl)ethyl]-3-pyridinecarboximidamide]",ED20,[1],0.0333 mg/kg
"CCN(CC)c1ccc(C(=NCCO[N+](=O)[O-])NC#N)cn1 [compound 21, N-cyano-6-diethylamino-N'-(2-nitroxyethyl)-3-pyridinecarboximidamide]",IC50,rat aorta,4.6 µM
"CCNc1cncc(C(=NCCO[N+](=O)[O-])NC#N)c1 [Compound No. 19, N-cyano-5-ethylamino-N'-(2-nitroxyethyl)-3-pyridinecarboximidamide]",IC50,rat aorta,10 µM
same,decrease in blood pressure / antihypertensive effect,[3],decrease in blood pressure was observed
same,duration of the antihypertensive effect,[3],≥ 12 h
same,percent change in SBP observed before administration of the compound,[3]; 1 hour after administration,-60.2%
same,percent change in SBP observed before administration of the compound,[3]; 2 hour after administration,-47.2%
same,percent change in SBP observed before administration of the compound,[3]; 4 hour after administration,-24.3%
same,percent change in SBP observed before administration of the compound,[3]; 6 hour after administration,-23.9%
same,percent change in SBP observed before administration of the compound,[3]; 8 hour after administration,-25.9%
same,percent change in SBP observed before administration of the compound,[3]; 12 hour after administration,-27.7%
same,percent change in SBP observed before administration of the compound,[3]; 24 hour after administration,-9.8%
"N#CNC(=NCCc1ccccc1Cl)c1cncc(CO)c1 [compound 3, N-cyano-N'-[2-(2-chlorophenyl)ethyl]-5-hydroxymethyl-3-pyridinecarboximidamide]",ED20,[1],0.0087 mg/kg
"Cc1cncc(C(=NCCc2ccccc2Cl)NC#N)c1 [Compound No. 1, N-cyano-N'-[2-(2-chlorophenyl)ethyl]-5-methyl-3-pyridinecarboximidamide]",ED20,[1],0.0171 mg/kg
"N#CNC(=NCCc1ccccc1Cl)c1cccnc1 [N-cyano-N'-[2-(2-chlorophenyl)ethyl]-3-pyridinecarboximidamide, reference compound]",decrease in blood pressure,"beagles, blood pressure; 10 and 30 μg/kg",decrease in blood pressure was observed
same,recovery of the decrease in blood pressure after administration,"beagles, blood pressure; both doses, 10 and 30 μg/kg",≤ 10 min
same,Antihypertensive activity (%),"beagles, blood pressure; dose 3 μg/kg, 0 min after dosage",0.0%
same,Antihypertensive activity (%),"beagles, blood pressure; dose 3 μg/kg, 1 min after dosage",0.0%
same,Antihypertensive activity (%),"beagles, blood pressure; dose 3 μg/kg, 2 min after dosage",1.9%
same,Antihypertensive activity (%),"beagles, blood pressure; dose 3 μg/kg, 3 min after dosage",1.9%
same,Antihypertensive activity (%),"beagles, blood pressure; dose 10 μg/kg, 0 min after dosage",0.0%
same,Antihypertensive activity (%),"beagles, blood pressure; dose 10 μg/kg, 1 min after dosage",-23.4%
same,Antihypertensive activity (%),"beagles, blood pressure; dose 10 μg/kg, 2 min after dosage",-17.7%
same,Antihypertensive activity (%),"beagles, blood pressure; dose 10 μg/kg, 3 min after dosage",-13.1%
same,Antihypertensive activity (%),"beagles, blood pressure; dose 10 μg/kg, 5 min after dosage",-4.7%
same,Antihypertensive activity (%),"beagles, blood pressure; dose 30 μg/kg, 0 min after dosage",0.0%
same,Antihypertensive activity (%),"beagles, blood pressure; dose 30 μg/kg, 1 min after dosage",-41.7%
same,Antihypertensive activity (%),"beagles, blood pressure; dose 30 μg/kg, 2 min after dosage",-39.8%
same,Antihypertensive activity (%),"beagles, blood pressure; dose 30 μg/kg, 3 min after dosage",-33.3%
same,Antihypertensive activity (%),"beagles, blood pressure; dose 30 μg/kg, 5 min after dosage",-16.7%
same,Antihypertensive activity (%),"beagles, blood pressure; dose 30 μg/kg, 7.5 min after dosage",-2.8%
same,Antihypertensive activity (%),"beagles, blood pressure; dose 30 μg/kg, 10 min after dosage",-0.9%
"N#CNC(=NCCO[N+](=O)[O-])c1ccc(N)nc1 [compound 20, 6-amino-N-cyano-N'-(2-nitroxyethyl)-3-pyridinecarboximidamide]",IC50,rat aorta,2.7 µM
"N#CNC(=NCCO[N+](=O)[O-])c1cccnc1 [Reference Compound, N-cyano-N'-(2-nitroxyethyl)-3-pyridinecarboximidamide, reference compound]",decrease in blood pressure / antihypertensive effect,[3],antihypertensive effect was also observed
same,duration of the antihypertensive effect,[3],about 6 hours
same,percent change in SBP observed before administration of the compound,[3]; 1 hour after administration,-55.9%
same,percent change in SBP observed before administration of the compound,[3]; 2 hour after administration,-41.5%
same,percent change in SBP observed before administration of the compound,[3]; 4 hour after administration,-10.6%
same,percent change in SBP observed before administration of the compound,[3]; 6 hour after administration,-6.8%
same,increase of coronary blood flow,[4],increase in coronary blood flow was observed
same,time for which the increase of coronary blood flow was retained,[4],≤ 10 min
same,percent change of coronary blood flow as compared with the blood flow before administration,[4]; 1 min after dosage,219.0%
same,percent change of coronary blood flow as compared with the blood flow before administration,[4]; 3 min after dosage,42.9%
same,percent change of coronary blood flow as compared with the blood flow before administration,[4]; 5 min after dosage,14.3%
same,percent change of coronary blood flow as compared with the blood flow before administration,[4]; 10 min after dosage,0.0%
"CC(=O)Nc1cncc(C(=NC#N)NCCc2ccccc2Cl)c1 [compound 7, 5-acetamide-N-cyano-N'-[2-(2-chlorophenyl)-ethyl]-3-pyridinecarboximidamide]",ED20,[1],0.0123 mg/kg
"CCc1cncc(C(=NCCc2ccccc2Cl)NC#N)c1 [compound 2, N-cyano-N'-[2-(2-chlorophenyl)ethyl]-5-ethyl-3-pyridinecarboximidamide]",ED20,[1],0.007 mg/kg
